Measured values taken from US20200306216A1, “CURE FOR ALZHEIMER'S DISEASE” (priority 2019, published 2020).

Assay: Single-patient clinical case: combination therapy for Alzheimer's disease
Type: in vivo, human
Conditions: overall outcome as stated by applicant
Procedure: A patient suffering from significant memory loss and vision loss was evaluated for treatment. The patient suffered a gradual decline in both short-term and long-term memory over at least three years. The patient also complained about vision loss over a period of about six years. The patient scored 11 out of 30 on a mental status exam, indicating dementia or other cognitive impairment. A clinical psychologist determined that the patient was oriented to person, but poorly oriented to place and time. […] The patient acknowledged having anger problems. The patent denied having anxiety, mania, or depression but acknowledged occasional suicidal ideation. They denied having any current intent to harm […]. The patient's spouse reported that the patient would sometimes sit and rock back-and-forth. They also reported that the patient would sometimes hit their head when upset. There was no evidence that the patient suffered from delusions or hallucinations, and there was no evidence of agnosia. The patient previously had coronary artery bypass surgery and also suffered from type 2 diabetes mellitus for multiple decades. […] The patient also suffered from hepatitis C, but was not previously treated. It was determined that the patient was only able to perceive light in both eyes. The patient's loss of vision was due to glaucoma and diabetic retinopathy. […]

Structure (SMILES)	outcome of treatment of Alzheimer's disease
COc1cc2c(cc1OC)C(=O)C(CC1CCN(Cc3ccccc3)CC1)C2 (centres unmarked) [donepezil]	unsuccessful
CC12CC3CC(C)(C1)CC(N)(C3)C2 [memantine]	unsuccessful
